Data published in US20230287316A1, “INTER-ORGAN PLATFORM WITH TISSUE-SPECIFIC NICHES FOR A MICROPHYSIOLOGICAL SYSTEM ON A CHIP” (THE TRUSTEES OF COLUMBIA UNIVERSITY IN THE CITY OF NEW YORK, priority 2020, published 2023).
Structures can show the parent of a compound that is named as a salt.

Key:
[1] = tested on: human engineered cardiac tissue; experiment: Validation of engineered cardiac tissue with drugs of known cardiac effects: beat frequency; format: cell-based
Description: Levels were normalized first to β actin and subsequently to the tissue engineered bone control (mean ± s.d., n = 3). […] All scale bars: 100 µm.
The cardiac tissue model was generated from iPS-derived cardiomyocytes and fibroblasts encapsulated in fibrin hydrogel, as in our previous studies. The tissue was formed between two elastic pillars causing cell elongation and alignment, and subjected to electrical stimulation to synchronously contract and work against the pillars.
Specifically, linsitinib was dissolved at a 10 mM concentration in DMSO (Corning) and mixed in with the respective cell medium at a […] concentration unless otherwise noted. Vehicle treatments involved just the addition of DMSO at identical volumes as a control. Tissues were randomly assigned to experimental groups. Medium was changed every day.
To measure the cardiac contractility online, we took contractility videos of the tissues that were analyzed using the native MATLAB code we previously developed. Tissue contractility was measured by tracking the change in tissue area as a function of time. Acquired video frames were inverted and an automated intensity threshold was used to identify cell location in the video frame. First, a baseline time point in the video corresponding to a relaxed tissue state was selected. Absolute differences in cell area from the baseline frame were then calculated to create a time course of cell area changes over time. The resulting time courses were analyzed using a native MATLAB (MATHWorks) automated peak finding algorithm to determine locations of maximum cell contractions in the time profiles. Beat period lengths were determined from the length of time between the pairs of local maxima, and the beat frequencies were determined by inverting beat periods. The rate of proarrhythmic events was calculated by the ratio of the number of proarrhythmic events over the total number of beats.

endothelial barrier = experiment: Endothelial barrier permeability response to thrombin; format: cell-based, human; conditions: endothelialized mesh inserts under flow shear
Description: Vascularization The generation of a patient-specific vascular barrier is critical for functionally connecting tissue compartments while maintaining each tissues, as well as vascular perfusion, under optimal culture conditions resulting in phenotypic stability and maturation, analogous to the separation of interstitial and intravascular compartments in vivo. Transwell mesh inserts in each tissue chamber were coated with fibronectin and seeded with ECs and supporting MSCs with 2:1 ratio (FIG. 36). A stable endothelial barrier was then established by exposure to flow shear (ramped up from 1 to 5 dyn/cm^2 over 5 days of culture). To physiologically integrate engineered tumors and host tissues by vascular flow, the endothelialized membrane needs to separate the interstitial and intravascular spaces, enabling vasculature-mediated tissues crosstalk. […] Such response to an inflammatory agent is critical for metastatic extravasation of cancer cells. The endothelial barrier allowed optimization of culture conditions for each tissue - akin to compartmentalization in the body that avoids the use of “common” media. This approach promoted long term culture (4-12 weeks) of matured tissues, with on-line readouts (cell tracking, viability, function) in longitudinal and dynamic studies. […]

[2] = tested on: all tissues in the InterOrgan platform; experiment: Doxorubicin-induced toxicity in InterOrgan platform: viability and metabolism of all tissues; format: cell-based, human; conditions: 30 µM Dox, 72 hours after exposure
Description: After the acute dose, each engineered tissue was assessed for cell viability, glucose consumption, and mitochondrial activity 72 hours after exposure (FIGS. 13D-F). Functional features for each engineered tissue 72 hours after acute exposure (n=3-5) are shown in FIGS. 13G-J. Over a thousand miRNAs from control and Dox-exposed cardiac tissues were differentially expressed under Isolated and InterOrgan conditions (FIG. 13K).
Treatment with 30 µM Dox, corresponding to the clinically administered cumulative dosage shown to induce cardiotoxicty, was delivered to tissues in the InterOrgan platform through the vascular channel and compared against the Isolated condition (FIG. 13A). […] We also detected decreased cardiac contractility and increased troponin release, both clinical measures of cardiac cell damage (FIG. 13G).
Metabolic Assays: Glucose, lactate, glutamate and glutamine were measured in parallel using the bioluminescent Glucose-Glo™ (Promega, cat. no. J6021), Lactate-Glo™ (Promega, cat. No. J5021), Glutamine/Glutamate-Glo™ (Promega, cat. no. J8021) and Glutamate-Glo™ (Promega, cat. no. J7021) assays according to the manufacturer’s protocols.

[3] = tested on: engineered cardiac tissues; experiment: Doxorubicin-induced toxicity: heart function assays; format: cell-based, human; conditions: 30 µM Dox, 72 hours
Description: Heart function assays: Cardiac excitability, force, and beat rate were obtained using our previously established protocols. Cardiac troponin secretion was determined using the Human Cardiac Troponin I ELISA Kit (Abcam, ab200016) according to the manufacturer’s instructions.

Liver tissues = experiment: Doxorubicin-induced toxicity: liver function assays; format: cell-based, human; conditions: 30 µM Dox, 72 hours
Description: Liver function assays: To assess liver function, […] and urea secretion using a Human ELISA kit (Bethyl, E88-129) and a Urea Nitrogen Test Kit (Fisher Scientific, SB-0580-250), respectively. Comparing these samples to the provided standard, concentrations of albumin and urea were calculated and compared to the secretion for each tissue at Day 0. Assays were performed according to the manufacturer’s instructions.

Bone tissues = experiment: Doxorubicin-induced toxicity: bone function assays; format: cell-based, human; conditions: 30 µM Dox, 72 hours
Description: Bone function assays: To assess the bone’s ability to remodel its matrix, supernatant samples were analyzed for […], (TRAP, Kamiya Biomedical Company, KT-008) and bone sialoprotein (Human Bone Sialoprotein ELISA Kit, Mybiosource, cat. no. MBS261861) after 28 days of culture. These assays were performed according to the manufacturer’s instructions.

skin tissues = experiment: Doxorubicin-induced toxicity: skin functional assays; format: cell-based, human; conditions: 30 µM Dox, 72 hours; both Isolated and InterOrgan cultures
Description: Skin functional assays: For drug-induced toxicity studies, electrical current was run through the tissues by placing electrodes on either side of the skin tissue and the change in resistance was subsequently measured and read as a function of the barrier. All tissues were analyzed using the same electrode holder setup to standardize the positions of electrodes with respect to the tissue. To analyze the transport of molecules through the skin barrier, Fluorescein (FITC, ThermoFisher, D3306) powder was added to the epidermis of skin tissues. After 3 hrs, 100 µl of supernatant from the dermal region below the skin tissue was sampled and assayed on a plate reader (BioTex Synergy HTX).

cardiac muscle = experiment: Drug distribution with functional matching in InterOrgan platform: cardiac beat frequency; format: cell-based, human; conditions: 10 µM introduced into the reservoir at t = 0; assessed at 24 and 72 hours
[4] = FITC circulation in the platform (absorption and diffusive transport); format: physicochemical
Description: We also circulated fluorescent FITC, which has similar chemical properties as linsitinib including hydrophobicity and molecular weight, and measured its distribution across the 2 tissue chambers in the platform (FIG. 26F). The simulated and empirical results agreed: FITC also reached uniform concentration in all areas of the platform in within 12 hours, after reaching equilibrium across both models at approximately 6 hours. This is significant, since linsitinib is known to have a short half-life of approximately 5 hours. The delayed drug distribution by diffusion through tissues observed here has been documented as an issue for treating solid tumors in patients, with chemotherapeutic concentrations decreasing exponentially with distance from tumor blood vessels and often being limited to the peripheries of tumors even 12 hours after injection.
Fluorescein isothiocyanate (FITC, 10 mM in DMSO; Sigma Aldrich) was circulated for the integrated platform to determine potential hydrophobic small molecule absorption, given its physical and chemical properties. FITC was added at a concentration of 10 µM to 8 mL of 1:1 bone tumor/cardiac mixed media and introduced into the platform. The control was the FITC-containing media in a standard 24-multiwell plate (Corning). Aliquots from the reservoir, bone tumor, and cardiac tissue chambers were taken at 12, 24, 48 and 72 hours and measured for fluorescent signal using a spectrophotometer (Biotek).
Measurements of FITC concentrations were used to estimate the spread of linsitinib within the platform via diffusive circulating transport. Four independent platforms were filled with 8 mL of 1:1 mixed media each, after which 10 µM of FITC was injected into the reservoir. The platforms were connected to the peristaltic pumps run at 100 rpm to generate physiologically relevant fluid flow rate and shear stress. Aliquots were taken from the reservoir, bone and cardiac chambers at 0, 2, 4, 6, and 12 hours post injection, and assayed for fluorescence signal on a spectrophotometer (Biotek).

[5] = isoproterenol dose-response study
[6] = 10 µM injected into the reservoir

CCCCc1oc2ccccc2c1C(=O)c1cc(I)c(OCCN(CC)CC)c(I)c1 [Amiodarone, amiodarone hydrochloride]
beat frequency ([1]; amiodarone 2.418 µM over 48 hours): expected decreases in the beat frequency

thrombin
barrier permeability (endothelial barrier): physiologic increase in barrier permeability

Cn1c(=O)c2c(ncn2C)n(C)c1=O [caffeine]
beat frequency ([1]; caffeine 50 mM): physiologic increases in beat frequency

COc1cccc2c1C(=O)c1c(O)c3c(c(O)c1C2=O)C[C@@](O)(C(=O)CO)C[C@@H]3O[C@H]1C[C@H](N)[C@H](O)[C@H](C)O1 [doxorubicin]
Cell viability [2]: significantly decreased | glucose consumption [2]: significantly decreased | mitochondrial activity [2]: significantly decreased | cardiac contractility [3]: decreased | troponin release [3]: increased | albumin (Liver tissues): decreased | urea production (Liver tissues): unaffected | TRAP responses (Bone tissues): stable | cellularity (Bone tissues): decreased | diffusional permeability (skin tissues): increased | electrical resistance (skin tissues): decreased | beat frequency ([1]; doxorubicin 1 µM over 72 hours): initially increased, and then decreased following prolonged exposure to the drug

CC(C)NCC(O)c1ccc(O)c(O)c1 (stereo not shown) [isoproterenol, isoproterenol hydrochloride]
EC50 (beat frequency) [1, 5]: expected values of EC50 | beat frequency [1, 5]: increased

CN(CCOc1ccc(NS(C)(=O)=O)cc1)CCc1ccc(NS(C)(=O)=O)cc1 [dofetilide]
beat rate of cardiac muscle (cardiac muscle): decreased

Fluorescein isothiocyanate [FITC]
absorption by the platform ([4]; 10 µM circulated for 72 hours, polysulfone platform compared to multi-well plates): without any measurable absorption by the platform | time to equilibrium across both models [4, 6]: approximately 6 hours | time to uniform concentration in all areas of the platform [4, 6]: ≤ 12 h

CNC[C@H](O)c1ccc(O)c(O)c1 [epinephrine]
beat rate of cardiac muscle (cardiac muscle): increased
